Patent US5932743A, “Methods for the solid phase synthesis of substituted indole compounds” (American Home Products Corporation, priority 1998, dated 1999)

Target: T1, human estrogen receptor (Homo sapiens, UniProt P03372)
T1 construct: expressed in transfected cells; host or cells: Chinese Hamster Ovary cells (CHO), stably transfected
T1 sequence (P03372 1-595): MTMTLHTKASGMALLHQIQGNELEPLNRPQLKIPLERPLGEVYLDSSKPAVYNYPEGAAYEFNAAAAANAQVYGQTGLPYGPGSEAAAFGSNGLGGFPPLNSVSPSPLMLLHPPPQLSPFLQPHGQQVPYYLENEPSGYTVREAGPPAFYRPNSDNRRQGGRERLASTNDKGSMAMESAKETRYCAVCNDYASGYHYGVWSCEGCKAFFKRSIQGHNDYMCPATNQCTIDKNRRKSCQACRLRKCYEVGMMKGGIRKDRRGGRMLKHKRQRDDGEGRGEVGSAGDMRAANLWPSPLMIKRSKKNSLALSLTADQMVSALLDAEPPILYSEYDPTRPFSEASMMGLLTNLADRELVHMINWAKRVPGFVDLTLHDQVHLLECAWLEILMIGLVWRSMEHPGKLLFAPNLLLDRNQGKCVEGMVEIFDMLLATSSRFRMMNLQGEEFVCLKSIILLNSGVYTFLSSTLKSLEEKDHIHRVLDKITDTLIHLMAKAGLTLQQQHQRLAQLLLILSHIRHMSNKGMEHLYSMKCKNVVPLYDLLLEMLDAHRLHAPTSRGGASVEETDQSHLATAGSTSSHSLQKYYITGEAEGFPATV
Assay: 2X VIT ERE Transfection Assay (estrogen receptor assay; luciferase reporter activity compared to 17β-estradiol in CHO cells stably transfected with the human estrogen receptor)
Type: cell-based
Conditions: 1 μM compound
Procedure: Enhancement of luciferase gene expression in this model is dependent upon estrogen receptor (ER) interaction with a vitellogenin gene estrogen responsive element (ERE) capable of enhancing basal promoter activity. This is a sensitive and rapid methodology to assess estrogenic/antiestrogenic potency of compounds.
48 h prior to treatment the growth medium is replaced with DMEM lacking phenol red+10% dextran coated charcoal stripped FBS (treatment medium). Cells are plated at a density of 5000 cells/well in 96-well plates containing 200 μL of medium/well.
20 μL of this mixture is added to each well of cells and remains on the cells for 16 h. […] Each treatment condition is performed on 8 wells (n=8) which are incubated for 24 h prior to luciferase assay.
The data is logged and automatically sent to a JMP statistical program for analysis. A hard copy printout is also produced at the time of the assay.
A plate containing a standard curve (0.1 to 1.5 milliunits in triplicate) is set up for each experimental run. The plates are analyzed on a Molecular Devices spectrophotometric plate reader at 410 nm. The optical densities for the unknowns are converted to milliunits of activity by mathematical extrapolation from the standard curve. […] The mean and standard deviation is determined from a n=8 for each treatment.

Compound: CCOC(=O)Cn1c(-c2ccccc2)c(C2=C(C(=O)OC)CCC2)c2ccc(C(=O)O)cc21 [Example 12, 1-Ethoxycarbonylmethyl-3-(2-methoxycarbonyl-cyclopent-1-enyl)-2-phenyl-1H-indole-6-carboxylic Acid]
- estrogenic classification / activity in words: estrogenic
